Twelve molecules from patent publication US11957687B2 (REGENERON PHARMACEUTICALS, INC., priority 2019, dated 2024) can be followed below.

One data set addresses HSD17B13 (Homo sapiens (Human), UniProt Q7Z5P4). The experiment in a line: HSD17B13 enzymatic inhibition assay (150 nM or 50 nM HSD17B13). The class given is biochemical. To be noted: 50 nM HSD17B13; read-out: Inhibition of 50 nM of HSD17B13 IC50.
Data set [1] can be described thus: Microsome stability assay, human liver microsomes. The data set is classed as in vitro ADME. To be noted: 1 μM compound, 0.5 mg/mL microsomal protein. The procedure, abridged: (§1)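 Compound at 1 μM incubated at 37° C with pooled human or mouse liver microsomes (0.5 mg/mL protein) plus NADPH regenerating system, sampled at 0–60 min; a 60-min no-NADPH incubation also included. Single replicate; LC/MS/MS disappearance from analyte/internal standard peak area ratios, without standard curve.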
In general terms: Liver microsomes are vesicles of endoplasmic reticulum, rich in cytochrome P450 enzymes.

The nature of data set [2]: Microsome stability assay, mouse liver microsomes. The class given is in vitro ADME. To be noted: 1 μM compound, 0.5 mg/mL microsomal protein; for microsomal CLint at 1 h, 1 µM / half-life at 1 h, 1 µM / microsomal CLint at 1 μM / half-life at 1 μM: mouse, mouse liver microsomes, pooled, NADPH, 37° C.; for microsomal CLint at 1 h, 1 µM / microsomal CLint at 1 μM: read-out: Microsome Stability Mouse liver microsomes Cl; for half-life at 1 h, 1 µM / half-life at 1 μM: read-out: Microsome Stability Mouse liver microsomes T½. The procedure, abridged: as §1

The next data set deals with HSD17B1 (Homo sapiens (Human), UniProt P14061). The experiment in a line: HSD17B1 enzymatic blocking assay. The data set is classed as biochemical. To be noted: 25 μM Estradiol, 500 μM NAD; read-out: Inhibition of HSD17B1 IC50. The procedure, abridged: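 Activity followed as NADH formed on estradiol oxidation, read by NADH-Glo luminescence after 1 h detection in the dark at room temperature. Compounds preincubated with enzyme 30 min at room temperature; 0.5% DMSO and no-substrate controls. IC50 fitted from luminescence.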
Sequence of HSD17B1 (P14061 other isoform, or with tags, fused parts or gaps): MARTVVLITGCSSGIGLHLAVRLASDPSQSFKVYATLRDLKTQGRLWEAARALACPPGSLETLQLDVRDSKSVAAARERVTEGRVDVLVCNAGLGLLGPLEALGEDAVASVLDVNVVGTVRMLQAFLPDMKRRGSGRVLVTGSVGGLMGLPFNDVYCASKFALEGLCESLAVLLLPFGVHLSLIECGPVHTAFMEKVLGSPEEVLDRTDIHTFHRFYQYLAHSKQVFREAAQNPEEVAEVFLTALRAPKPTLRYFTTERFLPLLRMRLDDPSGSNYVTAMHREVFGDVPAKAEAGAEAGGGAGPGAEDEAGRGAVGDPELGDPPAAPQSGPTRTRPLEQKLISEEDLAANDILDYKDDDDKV

The next data set addresses HSD17B2 (Homo sapiens (Human), UniProt P37059). The experiment in a line: HSD17B2 enzymatic blocking assay. Particulars: 1.8 μM Estradiol, 650 μM NAD; read-out: Inhibition of HSD17B2 IC50. The class given is biochemical. The procedure, abridged:
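Mammalian-expressed enzyme at 2 ng/μL in 50 mM Tris-HCl pH 7.5 with detergents/BSA, preincubated 15 min at 20° C. with compound (10-point titration). Reaction with 1.8 μM estradiol and 650 μM NAD ran 45 min at 20° C.; NADH measured by NADH-Glo luminescence and IC50 derived.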

Where [3] appears, read: human, human liver microsomes, pooled, NADPH, 37° C., read-out: Microsome Stability Human liver microsomes Cl.
Setting [4] is: human, human liver microsomes, pooled, NADPH, 37° C., read-out: Microsome Stability Human liver microsomes T½.

Molecules are shown by their SMILES.

Sequence of HSD17B13 (Q7Z5P4 other isoform, or with tags, fused parts or gaps): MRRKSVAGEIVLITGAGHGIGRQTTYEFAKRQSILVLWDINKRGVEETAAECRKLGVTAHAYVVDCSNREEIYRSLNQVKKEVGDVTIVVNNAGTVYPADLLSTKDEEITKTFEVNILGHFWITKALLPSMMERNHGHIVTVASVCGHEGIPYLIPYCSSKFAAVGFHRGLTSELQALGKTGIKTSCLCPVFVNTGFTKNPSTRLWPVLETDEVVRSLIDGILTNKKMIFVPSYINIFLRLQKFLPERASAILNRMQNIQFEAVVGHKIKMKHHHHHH
Sequence of HSD17B2 (P37059 other isoform, or with tags, fused parts or gaps): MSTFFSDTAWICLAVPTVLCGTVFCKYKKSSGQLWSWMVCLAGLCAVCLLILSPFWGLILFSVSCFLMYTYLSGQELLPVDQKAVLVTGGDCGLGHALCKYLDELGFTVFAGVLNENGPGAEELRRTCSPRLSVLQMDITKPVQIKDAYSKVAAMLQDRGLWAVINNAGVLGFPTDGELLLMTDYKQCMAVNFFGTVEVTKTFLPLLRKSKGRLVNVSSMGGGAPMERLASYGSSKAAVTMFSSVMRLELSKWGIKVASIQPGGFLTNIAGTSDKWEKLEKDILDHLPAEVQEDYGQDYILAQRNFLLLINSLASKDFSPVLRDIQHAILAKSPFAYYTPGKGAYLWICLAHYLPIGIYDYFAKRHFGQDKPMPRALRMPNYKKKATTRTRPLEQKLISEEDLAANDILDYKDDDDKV

A word on the IC50: it is the concentration that inhibits the measured activity by half. For the molecule `COc1ccc2c(c1)Sc1ccccc1C2NC(=O)c1ccc(C(F)F)[nH]c1=O` (stereo not drawn) [Compound 272, 6-(difluoromethyl)-N-(3-methoxy-9H-thioxanthen-9-yl)-2-oxo-1,2-dihydropyridine-3-carboxamide], the half-inhibitory concentration (IC50) was 0.43 µM on HSD17B13, more than 30 µM at HSD17B1 and 29.7 µM at HSD17B2. Moreover, the “Microsome Stability Human liver microsomes % Remaining @60 min” value in data set [1] is on record as 73.40%. Also, the microsomal CLint at 1 h, 1 µM in data set [1] (setting [3]) worked out at 12.1 µL/min/mg; in data set [2], 68.2 µL/min/mg. The half-life at 1 h, 1 µM was 114 min in data set [1] (setting [4]) and 20.3 min in data set [2]. Also, the “Microsome Stability Mouse liver microsomes % Remaining @60 min” value in data set [2] came out at 13.10%.

With `CCCC1CCc2cc(OC)ccc2C1NC(=O)c1ccc(C(F)(F)F)[nH]c1=O` (stereo not drawn) [Compound 289, N-(6-methoxy-2-propyl-1,2,3,4-tetrahydronaphthalen-1-yl)-2-oxo-6-(trifluoromethyl)-1,2-dihydropyridine-3-carboxamide], the half-inhibitory concentration (IC50) was 0.08 µM on HSD17B13, more than 30 µM at HSD17B1 and 29.4 µM at HSD17B2. Moreover, in data set [1], the “Microsome Stability Human liver microsomes % Remaining @60 min” value was 14.90%. Also, the microsomal CLint at 1 h, 1 µM in data set [1] (setting [3]) stood at 59.9 µL/min/mg; in data set [2], 47 µL/min/mg. Moreover, the half-life at 1 h, 1 µM was determined as 23.1 min in data set [1] (setting [4]) and 29.5 min in data set [2]. Moreover, the “Microsome Stability Mouse liver microsomes % Remaining @60 min” value in data set [2] came to 22.70%.

In the case of `CCC1Cc2cc(C)ccc2C1NC(=O)c1ccc(C(F)(F)F)[nH]c1=O` (stereo not drawn) [Compound 298, N-(2-ethyl-5-methyl-2,3-dihydro-1H-inden-1-yl)-2-oxo-6-(trifluoromethyl)-1,2-dihydropyridine-3-carboxamide], the figures for the IC50 at HSD17B13, on HSD17B1 and at HSD17B2 were 0.06 µM, more than 30 µM and 30.9 µM, respectively. Further, in data set [1], the “Microsome Stability Human liver microsomes % Remaining @60 min” value was 1%. Also, the microsomal CLint at 1 h, 1 µM was determined as 450 µL/min/mg in data set [1] (setting [3]) and 45.1 µL/min/mg in data set [2]. Besides, the half-life at 1 h, 1 µM worked out at 3.08 min in data set [1] (setting [4]) and 30.7 min in data set [2]. Besides, the “Microsome Stability Mouse liver microsomes % Remaining @60 min” value in data set [2] is 26.50%.

For the molecule `CCC1CCc2cc(OC)ccc2C1NC(=O)c1ccc(C(F)(F)F)[nH]c1=O` (stereo not drawn) [Compound 299, N-(2-ethyl-6-methoxy-1,2,3,4-tetrahydronaphthalen-1-yl)-2-oxo-6-(trifluoromethyl)-1,2-dihydropyridine-3-carboxamide], the IC50 is 0.1 µM at HSD17B13, more than 30 µM on HSD17B1 and 22.6 µM on HSD17B2. Besides, the “Microsome Stability Human liver microsomes % Remaining @60 min” value in data set [1] is reported as 11%. In addition, the microsomal CLint at 1 h, 1 µM amounted to 66.8 µL/min/mg in data set [1] (setting [3]) and 27.4 µL/min/mg in data set [2]. For the same molecule, the values for the half-life at 1 h, 1 µM in data set [1] (setting [4]) and in data set [2] were 20.8 min and 50.6 min, respectively. Moreover, in data set [2], the “Microsome Stability Mouse liver microsomes % Remaining @60 min” value was 43.50%.

Turning to `Cc1ccc2c(c1)Sc1cc(C)ccc1C2NC(=O)c1cc(-c2ccccc2)c(C(F)(F)F)[nH]c1=O` [Compound 306, N-(3,6-dimethyl-9H-thioxanthen-9-yl)-2-oxo-5-phenyl-6-(trifluoromethyl)-1,2-dihydropyridine-3-carboxamide], the IC50 was 0.03 µM on HSD17B13, 7.47 µM on HSD17B1 and 17.3 µM on HSD17B2. In addition, in data set [1], the “Microsome Stability Human liver microsomes % Remaining @60 min” value amounted to 12.80%. For the same molecule, the microsomal CLint at 1 h, 1 µM in data set [1] (setting [3]) came to 72.9 µL/min/mg; in data set [2], 9.6 µL/min/mg. In addition, the figures for the half-life at 1 h, 1 µM in data set [1] (setting [4]) and in data set [2] were 19 min and 144 min, respectively. In addition, in data set [2], the “Microsome Stability Mouse liver microsomes % Remaining @60 min” value is given as 70.90%.

`Cc1ccc2c(c1)Sc1cc(C)ccc1C2NC(=O)c1cc(-c2ccccn2)c(C(F)(F)F)[nH]c1=O` [Compound 307, N-(3,6-dimethyl-9H-thioxanthen-9-yl)-6′-oxo-2′-(trifluoromethyl)-1′,6′ dihydro-[2,3′-bipyridine]-5′-carboxamide]: the IC50 at HSD17B13 amounted to 0.01 µM. In addition, the “Microsome Stability Human liver microsomes % Remaining @60 min” value in data set [1] was determined as 0.85%. Further, the microsomal CLint at 1 h, 1 µM in data set [1] (setting [3]) worked out at 154 µL/min/mg. Moreover, the half-life at 1 h, 1 µM in data set [1] (setting [4]) amounted to 9 min. Moreover, in data set [2], the “Microsome Stability Mouse liver microsomes % Remaining @60 min” value is given as 96.20%, the microsomal CLint at 1 μM was less than 9.6 µL/min/mg and the half-life at 1 μM was more than 145 min. Also, at HSD17B1, the IC50 was found to be 2.73 µM. In addition, the IC50 on HSD17B2 turned out to be 8.98 µM.

Regarding `Cc1ccc2c(c1)[C@H](O)CC[C@H]2NC(=O)c1ccc(C(F)(F)F)[nH]c1=O` [Compound 311, N-((1R,4R)-4-hydroxy-6-methyl-1,2,3,4-tetrahydronaphthalen-1-yl)-2-oxo-6-(trifluoromethyl)-1,2-dihydropyridine-3-carboxamide], the IC50 on HSD17B13 is 0.19 µM; on HSD17B1, more than 30 µM; at HSD17B2, more than 100 µM. The “Microsome Stability Human liver microsomes % Remaining @60 min” value in data set [1] was determined as 67.80%. Besides, the microsomal CLint at 1 h, 1 µM in data set [1] (setting [3]) amounted to 10.5 µL/min/mg. Also, the half-life at 1 h, 1 µM in data set [1] (setting [4]) worked out at 132 min. Besides, the “Microsome Stability Mouse liver microsomes % Remaining @60 min” value in data set [2] amounted to 105%. In data set [2], the microsomal CLint at 1 μM is less than 9.6 µL/min/mg. Moreover, the half-life at 1 μM in data set [2] is more than 145 min.

For the molecule `COc1ccc2c(c1)Oc1cnccc1C2NC(=O)c1ccc(C(F)(F)F)[nH]c1=O` (stereo not drawn) [Compound 327, N-(8-methoxy-5H-chromeno[2,3-c]pyridin-5-yl)-2-oxo-6-(trifluoromethyl)-1,2-dihydropyridine-3-carboxamide], the IC50 was 0.38 µM on HSD17B13, 21.4 µM at HSD17B1 and more than 100 µM on HSD17B2. In data set [1], the “Microsome Stability Human liver microsomes % Remaining @60 min” value turned out to be 62%. Further, the microsomal CLint at 1 h, 1 µM turned out to be 15.8 µL/min/mg in data set [1] (setting [3]) and 24.6 µL/min/mg in data set [2]. For the same molecule, the half-life at 1 h, 1 µM in data set [1] (setting [4]) was 87.7 min; in data set [2], 56.3 min. Moreover, the “Microsome Stability Mouse liver microsomes % Remaining @60 min” value in data set [2] is on record as 46%.

With `COC1Cc2cc(C)ccc2C1NC(=O)c1ccc(C(F)(F)F)[nH]c1=O` (stereo not drawn) [Compound 351, N-(2-methoxy-5-methyl-2,3-dihydro-1H-inden-1-yl)-2-oxo-6-(trifluoromethyl)-1,2-dihydropyridine-3-carboxamide], the 50% inhibitory concentration (IC50) at HSD17B13 is 0.51 µM; at HSD17B1, more than 30 µM; at HSD17B2, 65.4 µM. In data set [1], the “Microsome Stability Human liver microsomes % Remaining @60 min” value is given as 0.73%. For the same molecule, in data set [1] (setting [3]), the microsomal CLint at 1 h, 1 µM was determined as 157 µL/min/mg. Also, the half-life at 1 h, 1 µM in data set [1] (setting [4]) amounted to 8.84 min. Besides, the “Microsome Stability Mouse liver microsomes % Remaining @60 min” value in data set [2] came out at 83.70%. The microsomal CLint at 1 μM in data set [2] is less than 9.6 µL/min/mg. In addition, in data set [2], the half-life at 1 μM was more than 145 min.

As to `COc1ccc2c(c1)CC(OC)C2NC(=O)c1ccc(C(F)(F)F)[nH]c1=O` (stereo not drawn) [Compound 352, N-(2,5-dimethoxy-2,3-dihydro-1H-inden-1-yl)-2-oxo-6-(trifluoromethyl)-1,2-dihydropyridine-3-carboxamide], the concentration for half-maximal inhibition (IC50) at HSD17B13 came out at 0.7 µM. For the same molecule, the “Microsome Stability Human liver microsomes % Remaining @60 min” value in data set [1] was 5.86%. Also, in data set [1] (setting [3]), the microsomal CLint at 1 h, 1 µM was 93.5 µL/min/mg. Besides, the half-life at 1 h, 1 µM in data set [1] (setting [4]) was determined as 14.8 min. Also, in data set [2], the “Microsome Stability Mouse liver microsomes % Remaining @60 min” value was 88.70%, the microsomal CLint at 1 μM was less than 9.6 µL/min/mg and the half-life at 1 μM is more than 145 min. Also, the 50% inhibitory concentration (IC50) on HSD17B1 was more than 30 µM. In addition, on HSD17B2, the IC50 is more than 100 µM.

As to `CC[C@@H]1Oc2cc(C)ccc2[C@H]1NC(=O)c1ccc(C(F)(F)F)[nH]c1=O` [Compound 360, N-((2S,3R)-2-ethyl-6-methyl-2,3-dihydrobenzofuran-3-yl)-2-oxo-6-(trifluoromethyl)-1,2-dihydropyridine-3-carboxamide], the concentration for half-maximal inhibition (IC50) on HSD17B13 was 0.59 µM; on HSD17B1, more than 30 µM; on HSD17B2 it was 23.1 µM. In data set [1], the “Microsome Stability Human liver microsomes % Remaining @60 min” value is given as 1%. The microsomal CLint at 1 h, 1 µM stood at 318 µL/min/mg in data set [1] (setting [3]) and 32.8 µL/min/mg in data set [2]. The figures for the half-life at 1 h, 1 µM in data set [1] (setting [4]) and in data set [2] were 4.36 min and 42.2 min, respectively. Also, the “Microsome Stability Mouse liver microsomes % Remaining @60 min” value in data set [2] was found to be 36.20%.

On to `CCC[C@H]1C[C@@H](NC(=O)c2ccc(C(F)(F)F)[nH]c2=O)c2cc(C)ccc2N1` [Compound 362, N-((2S,4R)-6-methyl-2-propyl-1,2,3,4-tetrahydroquinolin-4-yl)-2-oxo-6-(trifluoromethyl)-1,2-dihydropyridine-3-carboxamide], for which the IC50 at HSD17B13 was 0.08 µM; at HSD17B1, more than 30 µM; on HSD17B2, 27.5 µM. For the same molecule, the “Microsome Stability Human liver microsomes % Remaining @60 min” value in data set [1] amounted to 58.50%. The microsomal CLint at 1 μM came to 15.3 µL/min/mg in data set [1] (setting [3]) and 12.1 µL/min/mg in data set [2]. In addition, the half-life at 1 μM in data set [1] (setting [4]) turned out to be 90.7 min; in data set [2], 114 min. The “Microsome Stability Mouse liver microsomes % Remaining @60 min” value in data set [2] worked out at 70%.
